Experimental data taken from the supplement of paper PMC10307832.

Legend:
Experiment in all cases: relative viability (nuclei count vs DMSO), 5 days (fraction); higher = more cells survive
Tipifarnib + Linsitinib = compound: Cn1cncc1[C@@](N)(c1ccc(Cl)cc1)c1ccc2c(c1)c(-c1cccc(Cl)c1)cc(=O)n2C [Tipifarnib] + C[C@]1(O)C[C@@H](c2nc(-c3ccc4ccc(-c5ccccc5)nc4c3)c3c(N)nccn32)C1 [Linsitinib] (partner 1 µM)
Outline: (§1)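 Nuclei were stained with Hoechst during a one-step fixation (final 0.05% Triton X-100, 1% formaldehyde, 1 ug/ml Hoechst) carried out 5 days after dosing, then counted on 4× images. The cells, lung cancer lines in 1536-well plates, had been dosed by pin tool the day after seeding with one drug alone or a fixed anchor-drug dose plus five library-drug doses (not always all listed) in √10 steps. Relative viability is the nuclei count in treated wells divided by that in vehicle wells, and each value is the median of duplicate plates.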

Tipifarnib + Pemetrexed = compound: Cn1cncc1[C@@](N)(c1ccc(Cl)cc1)c1ccc2c(c1)c(-c1cccc(Cl)c1)cc(=O)n2C [Tipifarnib] + Nc1nc2[nH]cc(CCc3ccc(C(=O)N[C@@H](CCC(=O)O)C(=O)O)cc3)c2c(=O)[nH]1 [Pemetrexed] (partner 0.2 µM)
Outline: as §1

Tipifarnib + Vorinostat = compound: Cn1cncc1[C@@](N)(c1ccc(Cl)cc1)c1ccc2c(c1)c(-c1cccc(Cl)c1)cc(=O)n2C [Tipifarnib] + O=C(CCCCCCC(=O)Nc1ccccc1)NO [Vorinostat] (partner 1 µM)
Outline: as §1

Tipifarnib + Olaparib = compound: Cn1cncc1[C@@](N)(c1ccc(Cl)cc1)c1ccc2c(c1)c(-c1cccc(Cl)c1)cc(=O)n2C [Tipifarnib] + O=C(c1cc(Cc2n[nH]c(=O)c3ccccc23)ccc1F)N1CCN(C(=O)C2CC2)CC1 [Olaparib] (partner 8 µM)
Outline: as §1

| Cell Line | relative viability (Tipifarnib + Linsitinib; first compound 0.01 µM) | relative viability (Tipifarnib + Linsitinib; first compound 0.03162 µM) | relative viability (Tipifarnib + Linsitinib; first compound 0.1 µM) | relative viability (Tipifarnib + Linsitinib; first compound 0.3162 µM) | relative viability (Tipifarnib + Linsitinib; first compound 1 µM) | relative viability (Tipifarnib + Pemetrexed; first compound 0.01 µM) | relative viability (Tipifarnib + Pemetrexed; first compound 0.03162 µM) | relative viability (Tipifarnib + Pemetrexed; first compound 0.1 µM) | relative viability (Tipifarnib + Pemetrexed; first compound 0.3162 µM) | relative viability (Tipifarnib + Pemetrexed; first compound 1 µM) | relative viability (Tipifarnib + Vorinostat; first compound 0.01 µM) | relative viability (Tipifarnib + Vorinostat; first compound 0.03162 µM) | relative viability (Tipifarnib + Vorinostat; first compound 0.1 µM) | relative viability (Tipifarnib + Vorinostat; first compound 0.3162 µM) | relative viability (Tipifarnib + Vorinostat; first compound 1 µM) | relative viability (Tipifarnib + Olaparib; first compound 0.01 µM) | relative viability (Tipifarnib + Olaparib; first compound 0.03162 µM) | relative viability (Tipifarnib + Olaparib; first compound 0.1 µM) | relative viability (Tipifarnib + Olaparib; first compound 0.3162 µM) | relative viability (Tipifarnib + Olaparib; first compound 1 µM) |
| --- | --- | --- | --- | --- | --- | --- | --- | --- | --- | --- | --- | --- | --- | --- | --- | --- | --- | --- | --- | --- |
| COR-L 105 | 0.88 | 0.855 | 0.674 | 0.554 | 0.668 | 1.16 | 1.11 | 0.814 | 0.784 | 0.793 | 0.982 | 0.75 | 0.605 | 0.504 | 0.478 | 0.691 | 0.725 | 0.59 | 0.546 | 0.584 |
| EKVX | 1.06 | 1.11 | 0.972 | 0.755 | 0.657 | 0.433 | 0.396 | 0.39 | 0.411 | 0.289 | 0.76 | 0.634 | 0.549 | 0.439 | 0.53 | 0.881 | 0.829 | 0.682 | 0.586 | 0.521 |
| EMC-BAC-2 | 0.855 | 0.798 | 0.689 | 0.706 | 0.636 | 0.412 | 0.434 | 0.45 | 0.462 | 0.469 | 0.355 | 0.386 | 0.233 | 0.338 | 0.191 | 0.502 | 0.441 | 0.482 | 0.427 | 0.429 |
| EPLC-272H | 1.17 | 1.16 | 1.21 | 0.83 | 0.531 | 0.248 | 0.364 | 0.358 | 0.35 | 0.252 | 0.4 | 0.457 | 0.371 | 0.233 | 0.139 | 0.86 | 0.481 | 0.578 | 0.35 | 0.222 |
| H3255 | 1.06 | 0.895 | 0.916 | 0.591 | 0.684 | 0.674 | 0.543 | 0.562 | 0.541 | 0.499 | 0.863 | 0.702 | 0.671 | 0.576 | 0.488 | 0.606 | 0.509 | 0.457 | 0.397 | 0.402 |
| HARA | 1.08 | 0.925 | 0.956 | 0.94 | 0.87 | 0.23 | 0.32 | 0.293 | 0.297 | 0.249 | 0.513 | 0.406 | 0.364 | 0.325 | 0.326 | 0.842 | 0.865 | 0.762 | 0.996 | 0.76 |
| HCC-15 | 0.78 | 0.751 | 0.627 | 0.544 | 0.548 | 0.227 | 0.254 | 0.226 | 0.222 | 0.232 | 0.833 | 0.701 | 0.673 | 0.589 | 0.53 | 0.758 | 0.75 | 0.793 | 0.631 | 0.56 |
| HCC-44 | 0.563 | 0.615 | 0.557 | 0.493 | 0.521 | 0.619 | 0.615 | 0.625 | 0.589 | 0.604 | 0.963 | 1.04 | 1.01 | 0.903 | 0.881 | 0.973 | 0.925 | 0.993 | 0.957 | 0.942 |
| HCC-78 | 0.607 | 0.565 | 0.562 | 0.354 | 0.361 | 0.934 | 0.941 | 0.91 | 0.906 | 0.933 | 0.503 | 0.451 | 0.392 | 0.385 | 0.366 | 0.93 | 1.01 | 0.863 | 0.758 | 0.636 |
| HCC-366 | 0.619 | 0.487 | 0.343 | 0.206 | 0.0767 | 0.145 | 0.143 | 0.167 | 0.127 | 0.0507 | 0.249 | 0.145 | 0.102 | 0.067 | 0.0373 | 0.302 | 0.327 | 0.164 | 0.199 | 0.106 |
| HCC-827 | 0.828 | 0.918 | 0.805 | 0.639 | 0.6 | 0.273 | 0.32 | 0.286 | 0.25 | 0.275 | 0.926 | 0.674 | 0.69 | 0.485 | 0.294 | 0.68 | 0.693 | 0.545 | 0.443 | 0.478 |
| HOP-62 | 0.916 | 0.64 | 0.38 | 0.304 | 0.301 | 0.233 | 0.297 | 0.276 | 0.208 | 0.222 | 0.624 | 0.186 | 0.335 | 0.243 | 0.203 | 0.337 | 0.395 | 0.205 | 0.193 | 0.2 |
| LC-2-ad | 0.756 | 0.705 | 0.487 | 0.448 | 0.369 | 0.273 | 0.271 | 0.283 | 0.265 | 0.275 | 0.634 | 0.505 | 0.42 | 0.336 | 0.305 | 0.69 | 0.667 | 0.666 | 0.533 | 0.515 |
